The results in this text go back to patent US20230159510A1, “NOVEL PRMT5 INHIBITORS” (AMGEN INC., priority 2020, published 2023).

One test deals with HCT116 MTAP null cells. The experiment in a line: HCT116 proliferation assay, MTAP null cells (CellTiter-Glo, 6 days). In kind it is cell-based. The note with it: 144 h, read-out: Protif_ HCT116-MTAP null IC50. In outline: (§1)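 Both lines grow in RPMI 1640 containing 10% fetal bovine serum. After an overnight rest, they receive compound at up to 1 or 10 µM in threefold serial dilutions, with vehicle wells holding DMSO only.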

The next test deals with HCT116 WT cells. The experiment in a line: HCT116 proliferation assay, WT cells (CellTiter-Glo, 6 days). Type of test: cell-based. To be noted: Homo sapiens, HCT-116, 144 h, read-out: Prolif_HCT116-WT IC50. In outline: as §1
For another test, the target named is PRMT5/MEP50 (Homo sapiens, UniProt O14744). The experiment in a line: MTase-Glo methyl transferase assay, Method A (Histone H4 peptide, 1 µM MTA, 24 h pre-incubation). Details: made in house. Type of test: biochemical. To be noted: read-out: PRMT5 MTase Glo Ki (nM, Meth. A). In a few lines:
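PRMT5/MEP50 (10 nM) pre-incubated 24 h with compound, 5 µM SAM and 1 µM MTA, then reaction started with 1 µM Histone H4 (1-21) peptide and run 2 h at room temperature in Tris pH 8.0 buffer. SAH formed detected by MTase-Glo luminescence; IC50 and KI from dose-response curves.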

The structures appear in SMILES notation. pIC50: −log10 of the molar value. Like-named read-outs stand apart in the source and are kept apart here.

Sequence of PRMT5/MEP50 (O14744 whole entry): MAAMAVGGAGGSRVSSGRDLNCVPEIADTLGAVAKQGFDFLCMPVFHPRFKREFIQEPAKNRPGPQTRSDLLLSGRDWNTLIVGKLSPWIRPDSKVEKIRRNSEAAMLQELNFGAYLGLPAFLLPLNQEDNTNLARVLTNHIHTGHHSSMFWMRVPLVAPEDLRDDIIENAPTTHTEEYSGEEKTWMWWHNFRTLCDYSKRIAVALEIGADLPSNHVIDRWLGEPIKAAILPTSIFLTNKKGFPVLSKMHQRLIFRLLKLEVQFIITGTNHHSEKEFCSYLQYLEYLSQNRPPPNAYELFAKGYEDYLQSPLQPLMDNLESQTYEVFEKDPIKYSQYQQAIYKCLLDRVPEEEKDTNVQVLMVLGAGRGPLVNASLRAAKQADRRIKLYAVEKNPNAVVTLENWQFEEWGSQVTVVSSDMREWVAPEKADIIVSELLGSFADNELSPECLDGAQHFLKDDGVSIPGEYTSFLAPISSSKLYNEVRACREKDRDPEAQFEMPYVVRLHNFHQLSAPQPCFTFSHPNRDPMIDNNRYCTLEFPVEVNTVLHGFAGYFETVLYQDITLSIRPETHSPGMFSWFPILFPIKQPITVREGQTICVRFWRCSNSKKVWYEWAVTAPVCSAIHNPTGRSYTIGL
Sequence of PRMT5/MEP50 (Q9BQA1 whole entry partner): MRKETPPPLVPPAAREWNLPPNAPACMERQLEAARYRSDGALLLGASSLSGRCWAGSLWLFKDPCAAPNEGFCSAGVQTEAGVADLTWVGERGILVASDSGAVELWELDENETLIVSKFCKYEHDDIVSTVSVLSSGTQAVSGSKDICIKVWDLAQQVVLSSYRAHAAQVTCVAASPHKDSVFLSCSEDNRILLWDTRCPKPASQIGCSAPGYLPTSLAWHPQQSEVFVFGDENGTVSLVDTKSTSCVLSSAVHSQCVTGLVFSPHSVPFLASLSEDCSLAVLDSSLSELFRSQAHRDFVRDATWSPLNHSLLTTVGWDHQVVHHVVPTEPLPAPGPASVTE

With `Cc1cc2cc(C(=O)N(Cc3ccc(C(F)(F)F)cn3)Cc3ncccn3)ccc2nc1N` [Example 338, 2-amino-3-methyl-N-(2-pyrimidinylmethyl)-N-((5-(trifluoromethyl)-2-pyridinyl)methyl)-6-quinolinecarboxamide], the pIC50 in the test on HCT116 MTAP null cells is 6.63; with HCT116 WT cells, < 5.00. The Ki at PRMT5/MEP50 was determined as 0.8 nM.

Turning to `Cc1cc2cc(C(=O)N(Cc3ccc(C#N)cn3)[C@H](C)c3ncccc3F)ccc2nc1N` [Example 542, (R)-2-amino-N-((5-cyanopyridin-2-yl)methyl)-N-(1-(3-fluoropyridin-2-yl)ethyl)-3-methylquinoline-6-carboxamide], the results for the pIC50 in the test with HCT116 MTAP null cells (HCT116-MTAP null) and in the test on HCT116 WT cells were 6.96 and 5.38, respectively. For the same compound, the Ki on PRMT5/MEP50 stood at 0.12 nM.

For `Cc1cc2cc(C(=O)N(Cc3ccc(C(F)(F)F)cn3)[C@@H]3CCOc4ccc(F)nc43)ccc2nc1N` (single isomer, unassigned) [Example 451], the pIC50 in the test with HCT116 MTAP null cells (HCT116-MTAP null) was 7.89; in the test on HCT116 WT cells it was 6.63. The Ki at PRMT5/MEP50 was 0.02 nM.

In the case of `Cc1cc2cc(C(=O)N(Cc3ncc(C(F)(F)F)cc3F)CC(C)C)ccc2nc1N` [Example 308, 2-amino-N-((3-fluoro-5-(trifluoromethyl)-2-pyridinyl)methyl)-3-methyl-N-(2-methylpropyl)-6-quinolinecarboxamide], the pIC50 is 6.21 in the test with HCT116 MTAP null cells (HCT116-MTAP null) and < 5.00 in the test with HCT116 WT cells. In addition, the Ki at PRMT5/MEP50 was 2.34 nM.

`Cc1cc2cc(C(=O)N(Cc3ccc(C(F)F)cn3)CC(C)C)ccc2nc1N` [Example 324, 2-amino-N-((5-(difluoromethyl)-2-pyridinyl)methyl)-3-methyl-N-(2-methylpropyl)-6-quinolinecarboxamide]: the pIC50 with HCT116 MTAP null cells (HCT116-MTAP null) was 6.07; in the test with HCT116 WT cells, < 5.00. Also, the Ki on PRMT5/MEP50 was determined as 2 nM.

As to `C[C@H](c1ncccn1)N(Cc1ccc(Cl)cn1)C(=O)c1ccc2nc(N)c(Br)cc2c1` [Example 412, 2-amino-3-bromo-N-((5-chloro-2-pyridinyl)methyl)-N-((1R)-1-(2-pyrimidinyl)ethyl)-6-quinolinecarboxamide], the pIC50 with HCT116 MTAP null cells (HCT116-MTAP null) was 6.91; in the test with HCT116 WT cells, 5.39. Also, on PRMT5/MEP50, the Ki amounted to 0.18 nM.

For the compound `Cc1cc2cc(C(=O)N(Cc3ccc(C(F)(F)F)cc3)Cc3ncccc3F)ccc2nc1N` [Example 328, 2-amino-N-((3-fluoro-2-pyridinyl)methyl)-3-methyl-N-(4-(trifluoromethyl)benzyl)-6-quinolinecarboxamide], the pIC50 in the test with HCT116 MTAP null cells (HCT116-MTAP null) is 6.75; in the test on HCT116 WT cells, 5.33. Also, the inhibition constant Ki on PRMT5/MEP50 was 0.41 nM.

`C[C@H](c1ncccc1F)N(Cc1ccc(C(F)(F)F)cn1)C(=O)c1cnc2nc(N)c(Br)cc2c1` [Example 388, 7-amino-6-bromo-N-((1R)-1-(3-fluoro-2-pyridinyl)ethyl)-N-((5-(trifluoromethyl)-2-pyridinyl)methyl)-1,8-naphthyridine-3-carboxamide]: the pIC50 in the test with HCT116 MTAP null cells (HCT116-MTAP null) was 6.86; in the test on HCT116 WT cells it was 5.31. Also, the Ki on PRMT5/MEP50 amounted to 0.15 nM.

Consider `Cc1cc2cc(C(=O)N(Cc3ccc(OC4CC4)cn3)[C@H](C)c3ncccn3)ccc2nc1N` [Example 376, 2-amino-N-((5-(cyclopropyloxy)-2-pyridinyl)methyl)-3-methyl-N-((1R)-1-(2-pyrimidinyl)ethyl)-6-quinolinecarboxamide], for which the pIC50 with HCT116 MTAP null cells (HCT116-MTAP null) was 7.21; in the test with HCT116 WT cells it was 5.82. The Ki on PRMT5/MEP50 is 0.02 nM.

Turning to `Cc1cc2cc(C(=O)N(Cc3ncc(C(F)(F)F)cc3Cl)[C@H](C)c3ncccc3F)ccc2nc1N` [Example 396, 2-amino-N-((3-chloro-5-(trifluoromethyl)-2-pyridinyl)methyl)-N-((1R)-1-(3-fluoro-2-pyridinyl)ethyl)-3-methyl-6-quinolinecarboxamide], the pIC50 was 6.10 with HCT116 MTAP null cells (HCT116-MTAP null) and < 5.00 in the test on HCT116 WT cells. Moreover, the Ki at PRMT5/MEP50 was determined as 0.27 nM.

Consider `Cc1cc2cc(C(=O)N(Cc3ccc(Br)cn3)[C@H](C)c3ncccc3Cl)ccc2nc1N` [Example 394, 2-amino-N-((5-bromo-2-pyridinyl)methyl)-N-((1R)-1-(3-chloro-2-pyridinyl)ethyl)-3-methyl-6-quinolinecarboxamide], for which the pIC50 with HCT116 MTAP null cells (HCT116-MTAP null) was 6.42; with HCT116 WT cells, < 5.00. For the same compound, the Ki on PRMT5/MEP50 was 0.12 nM.

For `Cc1cc2cc(C(=O)N(Cc3ccc(C(F)(F)F)nc3)[C@H](C)c3ncccn3)ccc2nc1N` (single isomer, unassigned) [Example 477], the pIC50 in the test on HCT116 MTAP null cells (HCT116-MTAP null) is 6.71; with HCT116 WT cells, 5.25. The inhibition constant (Ki) at PRMT5/MEP50 was found to be 0.11 nM.

On to `C[C@H](c1ncccn1)N(Cc1ccc(C(F)(F)F)nn1)C(=O)c1ccc2nc(N)c(Cl)cc2c1` (single isomer, unassigned) [Example 445], for which the values for the pIC50 in the test on HCT116 MTAP null cells (HCT116-MTAP null) and in the test on HCT116 WT cells were 6.26 and < 5.00, respectively. For the same compound, the Ki at PRMT5/MEP50 is 0.53 nM.

For `Cc1cc2cc(C(=O)N(Cc3ccc(C(F)(F)F)cn3)Cc3cnccn3)c(F)cc2nc1N` [Example 315, 2-amino-7-fluoro-3-methyl-N-(2-pyrazinylmethyl)-N-((5-(trifluoromethyl)-2-pyridinyl)methyl)-6-quinolinecarboxamide], the pIC50 in the test on HCT116 MTAP null cells (HCT116-MTAP null) is 6.74; with HCT116 WT cells, 5.36. The Ki on PRMT5/MEP50 is 0.25 nM.

For the compound `CC[C@H](c1ncccn1)N(Cc1ccc(C#N)cn1)C(=O)c1ccc2nc(N)c(C)cc2c1` (single isomer, unassigned) [Example 494], the negative logarithm of the IC50 (pIC50) with HCT116 MTAP null cells (HCT116-MTAP null) was 6.71; with HCT116 WT cells, 5.27. In addition, the Ki on PRMT5/MEP50 was 0.66 nM.

Consider `Cc1cc2cc(C(=O)N(Cc3ccc(C(=O)N(C)C)cn3)[C@H](C)c3ncccc3F)ccc2nc1N` [Example 561, 2-amino-N-((5-(dimethylcarbamoyl)-2-pyridinyl)methyl)-N-((1R)-1-(3-fluoro-2-pyridinyl)ethyl)-3-methyl-6-quinolinecarboxamide], for which the pIC50 is 6.05 in the test with HCT116 MTAP null cells (HCT116-MTAP null) and < 5.00 with HCT116 WT cells. On PRMT5/MEP50, the Ki is 0.3 nM.

As to `COc1ccc(CN(C(=O)c2ccc3nc(N)c(Cl)cc3c2)[C@H](C)c2ncccn2)nn1` [Example 413, 2-amino-3-chloro-N-((6-methoxy-3-pyridazinyl)methyl)-N-((1R)-1-(2-pyrimidinyl)ethyl)-6-quinolinecarboxamide], the pIC50 in the test on HCT116 MTAP null cells (HCT116-MTAP null) was 6.18; with HCT116 WT cells, < 5.00. Further, at PRMT5/MEP50, the Ki amounted to 0.65 nM.

On to `Cc1cc2cc(C(=O)N(Cc3ncc(Br)cc3C)[C@H](C)c3ncccn3)ccc2nc1N` (single isomer, unassigned) [Example 474], for which the negative logarithm of the IC50 (pIC50) in the test on HCT116 MTAP null cells (HCT116-MTAP null) was 7.06; in the test with HCT116 WT cells, 5.49. Further, the Ki at PRMT5/MEP50 was determined as 0.04 nM.

On to `Cc1cc2cc(C(=O)N(Cc3ccc(C(F)F)cn3)[C@H](C)c3cnn(C)n3)ccc2nc1N` (single isomer, unassigned) [Example 532], for which the pIC50 in the test on HCT116 MTAP null cells (HCT116-MTAP null) was 7.35; with HCT116 WT cells, 6.05. For the same compound, the inhibition constant Ki on PRMT5/MEP50 came out at 0.02 nM.

As for `Cc1cc2cc(C(=O)N(Cc3ccc(C(F)(F)F)cn3)CC(C)C)ncc2nc1N` [Example 313, 2-amino-3-methyl-N-(2-methylpropyl)-N-((5-(trifluoromethyl)-2-pyridinyl)methyl)-1,7-naphthyridine-6-carboxamide], the pIC50 in the test on HCT116 MTAP null cells was 6.04; in the test with HCT116 WT cells, < 5.00. The Ki on PRMT5/MEP50 worked out at 0.98 nM.

With `Cc1cc2cc(C(=O)N(Cc3ccc(Br)nn3)[C@H](C)c3nccs3)ccc2nc1N` [Example 514, 2-amino-N-((6-bromo-3-pyridazinyl)methyl)-3-methyl-N-((1R)-1-(1,3-thiazol-2-yl)ethyl)-6-quinolinecarboxamide], the results for the pIC50 in the test on HCT116 MTAP null cells (HCT116-MTAP null) and with HCT116 WT cells were 7.55 and 6.20, respectively. Moreover, the Ki on PRMT5/MEP50 was found to be 0.002 nM.

Regarding `Cc1cc2cc(C(=O)N(Cc3ccc(C(F)(F)F)cn3)[C@@H]3CCCc4cccnc43)ccc2nc1N` [Example 390, 2-amino-3-methyl-N-((8R)-5,6,7,8-tetrahydro-8-quinolinyl)-N-((5-(trifluoromethyl)-2-pyridinyl)methyl)-6-quinolinecarboxamide], the pIC50 is 7.64 with HCT116 MTAP null cells (HCT116-MTAP null) and 6.34 in the test on HCT116 WT cells. Besides, the Ki at PRMT5/MEP50 turned out to be 0.25 nM.

For `Cc1cc2cc(C(=O)N(Cc3ccc(C(F)(F)F)cn3)[C@@H]3CCCC(F)(F)[C@@H]3O)ccc2nc1N` (single isomer, unassigned) [Example 466], the negative-log IC50 (pIC50) was 6.57 in the test on HCT116 MTAP null cells (HCT116-MTAP null) and 5.37 with HCT116 WT cells. The Ki at PRMT5/MEP50 worked out at 0.13 nM.

On to `Cc1cc2cc(C(=O)N(Cc3ccc(C(F)(F)F)cn3)[C@H](C)c3ncccc3F)cnc2nc1N` [Example 389, 7-amino-N-((1R)-1-(3-fluoro-2-pyridinyl)ethyl)-6-methyl-N-((5-(trifluoromethyl)-2-pyridinyl)methyl)-1,8-naphthyridine-3-carboxamide], for which the pIC50 was 6.70 with HCT116 MTAP null cells (HCT116-MTAP null) and < 5.00 with HCT116 WT cells. Further, the inhibition constant Ki at PRMT5/MEP50 came to 0.37 nM.

In the case of `Cc1cc2cc(C(=O)N(Cc3ccc(C(F)(F)F)cn3)[C@@H]3CCCNC3=O)ccc2nc1N` (single isomer, unassigned) [Example 461], the pIC50 is 6.49 in the test with HCT116 MTAP null cells (HCT116-MTAP null) and 5.11 in the test with HCT116 WT cells. The Ki at PRMT5/MEP50 was determined as 1.23 nM.

`Cc1cc2cc(C(=O)N(Cc3ccc(C(F)(F)F)cn3)Cc3ncccc3F)ncc2nc1N` [Example 312, 2-amino-N-((3-fluoro-2-pyridinyl)methyl)-3-methyl-N-((5-(trifluoromethyl)-2-pyridinyl)methyl)-1,7-naphthyridine-6-carboxamide]: the negative logarithm of the IC50 (pIC50) in the test with HCT116 MTAP null cells (HCT116-MTAP null) is 6.09; in the test with HCT116 WT cells it was < 5.00. For the same compound, the Ki on PRMT5/MEP50 came to 0.36 nM.
